Legend:
Swiss male mice = experiment: Acute in vivo toxicity, unique IP injection; conditions: mice, from 20 mg/kg/day
PDX UPNT615 = experiment: Ex vivo testing on PDX samples (viability, flow cytometry, 72 h); type: cell-based, human
Excerpt: (§1) Bone marrow-infiltrating blasts from terminally mice bearing PDX as stated above were collected as established before. Extensive analysis (immunophenotype and molecular analysis) of matched primary and PDX samples used in the study are shown in Supplementary Table 7, showing that they remain stable. Briefly, after euthanasia, bone marrows from tibiae, hips, femurs, and vertebrae were isolated and blasts collected for subsequent ex vivo experiments. All samples used contained ≥90% blasts as determined by flow cytometry. For the cytotoxic evaluation of OR0642, blasts were then stained with CellTraceTM Violet (CTV, Thermo Fisher Scientific, C34557) prior seeding at 10,000 cells into 96-well plates under normal conditions or pre-plated with OP9-DL1 cells. Cells were cultured in RPMI 1640 supplemented with 20% fetal bovine serum, 50 µg/ml streptomycin, 50 UI penicillin, 4 mM L-glutamine, and a cocktail of human cytokines as previously established (50 ng/ml human stem cell factor, 20 ng/ml hFLT3-L, 10 ng/ml hIL-7 and 20 nM insulin (Miltenyi Biotec))[28]. […] Rescue by dC supplementation (1 µM) was also evaluated. OR0642 was then tested alone, or combined with dT or dT + dC at two concentrations (0.25 and 0.5 µM). Cell viability was evaluated by flow cytometry 72 h post-treatment. Proliferation indexes were calculated using the detection of CTV in the control replicates (DMSO) and the proliferation modeling tool of FlowJo™ Software 10.7.1 (BD Life Sciences). A control peak of undivided CTV-stained cells was systematically used to set the undivided fraction.

PDX UPNTAGG = experiment: as above; type: cell-based, human
Excerpt: as §1

PDX UPNT525 = experiment: as above; type: cell-based, human
Excerpt: as §1

PDX UPNT486 = experiment: as above; type: cell-based, human
Excerpt: as §1

PDX UPNT380 = experiment: as above; type: cell-based, human
Excerpt: as §1

PDX UPNT775 = experiment: as above; type: cell-based, human
Excerpt: as §1

PDX UPNT885 = experiment: as above; type: cell-based, human
Excerpt: as §1

PDX UPNT489 = experiment: as above; type: cell-based, human
Excerpt: as §1

## CCCN(c1nc(-c2nc(N)cc(N)n2)cs1)c1cc(-c2ccc(CCN3CCN(C)CC3)nc2)ccc1C [OR0602]
Swiss male mice
  in vivo tolerance: unacceptable side effects

## Cc1cn([C@H]2C[C@H](O)[C@@H](CO)O2)c(=O)[nH]c1=O [dT, thymidine]
PDX UPNT615; Homo sapiens, UPNT615, dT 12 µM, read-out: Cell viability, Mean (% viab)
  viability at 12 µM: 100%
PDX UPNT615; Homo sapiens, UPNT615, dT 37 µM, read-out: Cell viability, Mean (% viab)
  viability at 37 µM: 84.7%
PDX UPNT615; Homo sapiens, UPNT615, dT 111 µM, read-out: Cell viability, Mean (% viab)
  viability at 111 µM: 78.6%
PDX UPNT615; Homo sapiens, UPNT615, dT 333 µM, read-out: Cell viability, Mean (% viab)
  viability at 333 µM: 73.6%
PDX UPNT615; Homo sapiens, UPNT615, dT 1000 µM, read-out: Cell viability, Mean (% viab)
  viability at 1000 µM: 67.2%
PDX UPNT615; Homo sapiens, UPNT615, dT 3000 µM, read-out: Cell viability, Mean (% viab)
  viability at 3000 µM: 66.7%
PDX UPNT615; PDX 615, dT 100 µM
  Response at dT100 µM: 31
PDX UPNTAGG; Homo sapiens, UPNTAGG, dT 12 µM, read-out: Cell viability, Mean (% viab)
  viability at 12 µM: 100%
PDX UPNTAGG; Homo sapiens, UPNTAGG, dT 37 µM, read-out: Cell viability, Mean (% viab)
  viability at 37 µM: 87.6%
PDX UPNTAGG; Homo sapiens, UPNTAGG, dT 111 µM, read-out: Cell viability, Mean (% viab)
  viability at 111 µM: 82.2%
PDX UPNTAGG; Homo sapiens, UPNTAGG, dT 333 µM, read-out: Cell viability, Mean (% viab)
  viability at 333 µM: 73.3%
PDX UPNTAGG; Homo sapiens, UPNTAGG, dT 1000 µM, read-out: Cell viability, Mean (% viab)
  viability at 1000 µM: 65.7%
PDX UPNTAGG; Homo sapiens, UPNTAGG, dT 3000 µM, read-out: Cell viability, Mean (% viab)
  viability at 3000 µM: 58.6%
PDX UPNTAGG; PDX AGG, dT 100 µM
  Response at dT100 µM: 38
PDX UPNT525; Homo sapiens, UPNT525, dT 37 µM, read-out: Cell viability, Mean (% viab)
  viability at 37 µM: 99.5%
PDX UPNT525; Homo sapiens, UPNT525, dT 111 µM, read-out: Cell viability, Mean (% viab)
  viability at 111 µM: 67.8%
PDX UPNT525; Homo sapiens, UPNT525, dT 333 µM, read-out: Cell viability, Mean (% viab)
  viability at 333 µM: 44.3%
PDX UPNT525; Homo sapiens, UPNT525, dT 1000 µM, read-out: Cell viability, Mean (% viab)
  viability at 1000 µM: 30.6%
PDX UPNT525; Homo sapiens, UPNT525, dT 3000 µM, read-out: Cell viability, Mean (% viab)
  viability at 3000 µM: 24.9%
PDX UPNT525; PDX 525, dT 100 µM
  Response at dT100 µM: 44
PDX UPNT486; Homo sapiens, UPNT486, dT 12 µM, read-out: Cell viability, Mean (% viab)
  viability at 12 µM: 99.7%
PDX UPNT486; Homo sapiens, UPNT486, dT 37 µM, read-out: Cell viability, Mean (% viab)
  viability at 37 µM: 95%
PDX UPNT486; Homo sapiens, UPNT486, dT 111 µM, read-out: Cell viability, Mean (% viab)
  viability at 111 µM: 90.6%
PDX UPNT486; Homo sapiens, UPNT486, dT 333 µM, read-out: Cell viability, Mean (% viab)
  viability at 333 µM: 100%
PDX UPNT486; Homo sapiens, UPNT486, dT 1000 µM, read-out: Cell viability, Mean (% viab)
  viability at 1000 µM: 90.2%
PDX UPNT486; Homo sapiens, UPNT486, dT 3000 µM, read-out: Cell viability, Mean (% viab)
  viability at 3000 µM: 77.6%
PDX UPNT486; PDX 486, dT 100 µM
  Response at dT100 µM: 31
PDX UPNT380; Homo sapiens, UPNT380, dT 12 µM, read-out: Cell viability, Mean (% viab)
  viability at 12 µM: 100%
PDX UPNT380; Homo sapiens, UPNT380, dT 37 µM, read-out: Cell viability, Mean (% viab)
  viability at 37 µM: 85.4%
PDX UPNT380; Homo sapiens, UPNT380, dT 111 µM, read-out: Cell viability, Mean (% viab)
  viability at 111 µM: 79.4%
PDX UPNT380; Homo sapiens, UPNT380, dT 333 µM, read-out: Cell viability, Mean (% viab)
  viability at 333 µM: 76.9%
PDX UPNT380; Homo sapiens, UPNT380, dT 1000 µM, read-out: Cell viability, Mean (% viab)
  viability at 1000 µM: 70.3%
PDX UPNT380; Homo sapiens, UPNT380, dT 3000 µM, read-out: Cell viability, Mean (% viab)
  viability at 3000 µM: 67.7%
PDX UPNT380; PDX 380, dT 100 µM
  Response at dT100 µM: 27
PDX UPNT775; Homo sapiens, UPNT775, dT 12 µM, read-out: Cell viability, Mean (% viab)
  viability at 12 µM: 100%
PDX UPNT775; Homo sapiens, UPNT775, dT 37 µM, read-out: Cell viability, Mean (% viab)
  viability at 37 µM: 86.3%
PDX UPNT775; Homo sapiens, UPNT775, dT 111 µM, read-out: Cell viability, Mean (% viab)
  viability at 111 µM: 53.9%
PDX UPNT775; Homo sapiens, UPNT775, dT 333 µM, read-out: Cell viability, Mean (% viab)
  viability at 333 µM: 40.5%
PDX UPNT775; Homo sapiens, UPNT775, dT 1000 µM, read-out: Cell viability, Mean (% viab)
  viability at 1000 µM: 36%
PDX UPNT775; Homo sapiens, UPNT775, dT 3000 µM, read-out: Cell viability, Mean (% viab)
  viability at 3000 µM: 36.7%
PDX UPNT775; PDX 775, dT 100 µM
  Response at dT100 µM: 63
PDX UPNT885; Homo sapiens, UPNT885, dT 12 µM, read-out: Cell viability, Mean (% viab)
  viability at 12 µM: 100%
PDX UPNT885; Homo sapiens, UPNT885, dT 37 µM, read-out: Cell viability, Mean (% viab)
  viability at 37 µM: 85.3%
PDX UPNT885; Homo sapiens, UPNT885, dT 111 µM, read-out: Cell viability, Mean (% viab)
  viability at 111 µM: 65.1%
PDX UPNT885; Homo sapiens, UPNT885, dT 333 µM, read-out: Cell viability, Mean (% viab)
  viability at 333 µM: 49.5%
PDX UPNT885; Homo sapiens, UPNT885, dT 1000 µM, read-out: Cell viability, Mean (% viab)
  viability at 1000 µM: 44.3%
PDX UPNT885; Homo sapiens, UPNT885, dT 3000 µM, read-out: Cell viability, Mean (% viab)
  viability at 3000 µM: 39.5%
PDX UPNT885; PDX 885, dT 100 µM
  Response at dT100 µM: 49
PDX UPNT489; Homo sapiens, UPNT489, dT 12 µM, read-out: Cell viability, Mean (% viab)
  viability at 12 µM: 100%
PDX UPNT489; Homo sapiens, UPNT489, dT 37 µM, read-out: Cell viability, Mean (% viab)
  viability at 37 µM: 94.6%
PDX UPNT489; Homo sapiens, UPNT489, dT 111 µM, read-out: Cell viability, Mean (% viab)
  viability at 111 µM: 87%
PDX UPNT489; Homo sapiens, UPNT489, dT 333 µM, read-out: Cell viability, Mean (% viab)
  viability at 333 µM: 78.3%
PDX UPNT489; Homo sapiens, UPNT489, dT 1000 µM, read-out: Cell viability, Mean (% viab)
  viability at 1000 µM: 71.4%
PDX UPNT489; Homo sapiens, UPNT489, dT 3000 µM, read-out: Cell viability, Mean (% viab)
  viability at 3000 µM: 66.9%
PDX UPNT489; PDX 489, dT 100 µM
  Response at dT100 µM: 39

Source: paper PMC10227015, “From a drug repositioning to a structure-based drug design approach to tackle acute lymphoblastic leukemia” (Nature Communications, 2023)
